This is an account of results in patent publication US9682941B2, “Substituted biphenyl analogues as dual inhibitors of aromatase and sulfatase” (ESTRYX PHARMA LIMITED, priority 2013, dated 2017).

Each structure is given as a SMILES string. A value given as a limit tells only on which side of the number the result lay.

Test [1] deals with T1, steroid sulfatase (Homo sapiens, UniProt P08842).
T1 construct: JEG-3 which constitutively expresses high amount of aromatase and steroid sulfatase; endogenous in cells; host or cells: JEG-3
T1 sequence (P08842 22-583): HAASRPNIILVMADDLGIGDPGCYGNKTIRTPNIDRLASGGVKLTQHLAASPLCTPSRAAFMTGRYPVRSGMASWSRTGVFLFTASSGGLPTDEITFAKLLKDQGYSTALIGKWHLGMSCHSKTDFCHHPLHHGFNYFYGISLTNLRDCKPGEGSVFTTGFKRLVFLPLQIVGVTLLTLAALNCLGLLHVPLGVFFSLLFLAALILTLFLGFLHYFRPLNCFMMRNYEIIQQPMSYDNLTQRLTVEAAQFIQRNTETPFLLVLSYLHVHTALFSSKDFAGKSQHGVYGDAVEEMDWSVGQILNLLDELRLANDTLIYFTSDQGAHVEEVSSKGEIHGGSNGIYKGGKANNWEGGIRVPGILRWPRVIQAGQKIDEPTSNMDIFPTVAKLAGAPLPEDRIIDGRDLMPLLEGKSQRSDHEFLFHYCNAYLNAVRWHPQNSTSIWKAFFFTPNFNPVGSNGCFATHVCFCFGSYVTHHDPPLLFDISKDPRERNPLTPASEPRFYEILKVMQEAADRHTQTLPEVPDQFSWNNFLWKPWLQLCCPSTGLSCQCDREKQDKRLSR
Put plainly: Steroid sulfatase (STS) inhibition assay in JEG-3 cells ([6,7-3H] estrone sulfate). The format is cell-based. The settings on record: 1 hour at 37° C., duplicate. As for the experimental part:
(§1) Aromatase and steroid sulfatase enzymes inhibitions were evaluated in the human chorionic carcinoma cell line JEG-3 which constitutively expresses high amount of aromatase and steroid sulfatase.
For STS assay, JEG-3 cells were seeded into 24-well culture plates at 150,000 cells/ml/well and maintained in MEM containing supplements overnight. When reaching 80% confluent, the cells were washed once with serum-free MEM, loaded with 1 ml of substrate mix containing [6,7-3H] Estrone sulfate (E1S, 0.6 μCi/ml) and [4-14C] Estrone (E1, 4 nCi/ml) in the presence of compounds in a concentration series, and incubated for 1 hour at 37° C. The product [3H]E1 was separated from E1S by toluene partition using [4-14C]E1 to monitor extraction procedural losses, and the toluene fraction radioactivity was measured by a MicroBeta scintillation counter.
(§2) Experiments are performed in duplicate. The inhibitory concentration of 50% of the enzymatic activity is calculated.

Test [2] concerns the target T2, aromatase (Homo sapiens, UniProt P11511).
T2 construct: JEG-3 which constitutively expresses high amount of aromatase and steroid sulfatase; endogenous in cells; host or cells: JEG-3
T2 sequence (P11511 1-503): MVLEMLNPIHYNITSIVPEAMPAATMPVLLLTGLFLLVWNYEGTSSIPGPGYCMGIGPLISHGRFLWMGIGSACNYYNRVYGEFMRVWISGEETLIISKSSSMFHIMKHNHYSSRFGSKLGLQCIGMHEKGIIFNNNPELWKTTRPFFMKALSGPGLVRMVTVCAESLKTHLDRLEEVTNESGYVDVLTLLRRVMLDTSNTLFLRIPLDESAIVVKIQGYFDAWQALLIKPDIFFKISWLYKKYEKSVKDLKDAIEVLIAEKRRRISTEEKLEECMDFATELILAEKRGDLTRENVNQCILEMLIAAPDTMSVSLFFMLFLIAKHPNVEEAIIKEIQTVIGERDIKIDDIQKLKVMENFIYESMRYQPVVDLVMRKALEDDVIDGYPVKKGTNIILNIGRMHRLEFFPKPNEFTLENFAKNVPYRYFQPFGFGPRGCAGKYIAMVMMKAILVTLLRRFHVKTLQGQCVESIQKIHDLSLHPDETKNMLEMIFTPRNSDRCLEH
The test can be described thus: Aromatase inhibition assay in JEG-3 cells ([1β-3H] androstenedione, tritiated water release). The test is classed as cell-based. The following applies: 1.25 hour incubation, duplicate. As for the experimental part: as §1
For aromatase inhibition assay, JEG-3 cells were seeded into 96-well plates at 35,000 cells/well and maintained in MEM containing supplements. When reaching 80% confluent, the cells were washed once with serum-free MEM, incubated with [1β-^3H] androstenedione (A4, 0.2 μCi/ml) for 1.25 hour in the presence of the test substances added in a concentration series. The product, tritiated water (^3H2O), was separated using 2.5% (w/v) dextran-coated charcoal at 4-8° C. for 2 hours. The supernatant radioactivity was measured by a MicroBeta scintillation counter.
as §2

As usually defined, the IC50 is the concentration that inhibits the measured activity by half. In the case of `N#Cc1ncc(Nn2cnc3ccccc32)nc1-c1ccc(OS(N)(=O)=O)cc1` [Example 32, 4-(6-(1H-Benzo[d]imidazol-1-ylamino)-3-cyanopyrazin-2-yl)phenyl sulfamate], the IC50 in test [1] worked out at 19.5 nM; in test [2], 37.6 nM.

Turning to `N#Cc1ccc(Cn2cnc3cccnc32)cc1-c1ccc(OS(N)(=O)=O)cn1` [Example 33, 6-(5-((3H-Imidazo[4,5-b]pyridin-3-yl)methyl)-2-cyanophenyl)pyridin-3-yl sulfamate], the IC50 in test [1] turned out to be 17.6 nM; in test [2], 9 nM.

As for `CN(c1cnc(C#N)c(-c2ccc(OS(N)(=O)=O)cc2)n1)n1cnc2ccccc21` [Example 34, 4-(6-((1H-Benzo[d]imidazol-1-yl)(methyl)amino)-3-cyanopyrazin-2-yl)phenyl sulfamate], the IC50 in test [1] came out at 35.7 nM; in test [2], 8.4 nM.

As to `N#Cc1ccc(Nn2nnc3cccnc32)cc1-c1ccc(OS(N)(=O)=O)cc1` [Example 35, 5′-(3H-[1,2,3]Triazolo[4,5-b]pyridin-3-ylamino)-2′-cyano-[1,1′-biphenyl]-4-yl sulfamate], the IC50 was determined as 29.4 nM in test [1] and 5.1 nM in test [2].

As for `CN(c1ccc(C#N)c(-c2ccc(OS(N)(=O)=O)cn2)c1)n1cnc2ccccc21` [Example 37, 6-(5-((1H-Benzo[d]imidazol-1-yl)(methyl)amino)-2-cyanophenyl)pyridin-3-yl sulfamate], the IC50 in test [1] is 41.8 nM; in test [2], 2.4 nM.

Take `N#Cc1ncc(Nn2cnc3ccccc32)cc1-c1ccc(OS(N)(=O)=O)cc1` [Example 38, 4-(5-(1H-Benzo[d]imidazol-1-ylamino)-2-cyanopyridin-3-yl)phenyl sulfamate]: the IC50 in test [1] amounted to 19.1 nM; in test [2], 2.7 nM.

In the case of `CN(c1cnc(C#N)c(-c2ccc(OS(N)(=O)=O)cc2)c1)n1cnc2ccccc21` [Example 39, 4-(5-((1H-Benzo[d]imidazol-1-yl)(methyl)amino)-2-cyanopyridin-3-yl)phenyl sulfamate], the values for the IC50 in test [1] and in test [2] were > 60 nM and 1.5 nM, respectively.

Regarding `N#Cc1ncc(Nn2cnc3cccnc32)nc1-c1ccc(OS(N)(=O)=O)cc1` [Example 40, 4-(6-(3H-Imidazo[4,5-b]pyridin-3-ylamino)-3-cyanopyrazin-2-yl)phenyl sulfamate], the values for the IC50 in test [1] and in test [2] were 18.8 nM and > 60 nM, respectively.

For the compound `N#Cc1ccc(Nn2cnc3ccccc32)cc1-c1ccc(OS(N)(=O)=O)cn1` [Example 41, 6-(5-(1H-Benzo[d]imidazol-1-ylamino)-2-cyanophenyl)pyridin-3-yl sulfamate], the IC50 in test [1] was determined as 9.3 nM; in test [2], 2 nM.

As to `N#Cc1ccc(Cn2cnc3ccccc32)nc1-c1ccc(OS(N)(=O)=O)cn1` [Example 42, 6′-((1H-Benzo[d]imidazol-1-yl)methyl)-3′-cyano-[2,2′-bipyridin]-5-yl sulfamate], the half-inhibitory concentration (IC50) in test [1] is > 60 nM; in test [2] it was 41.9 nM.

On to `N#Cc1ncc(Nn2cnc3cccnc32)cc1-c1ccc(OS(N)(=O)=O)cc1` [Example 43, 4-(5-(3H-Imidazo[4,5-b]pyridin-3-ylamino)-2-cyanopyridin-3-yl)phenyl sulfamate], for which the results for the IC50 in test [1] and in test [2] were > 60 nM and 11.8 nM, respectively.

In the case of `CN(c1cnc(C#N)c(-c2ccc(OS(N)(=O)=O)cc2)n1)n1cnc2cccnc21` [Example 44, 4-(6-((3H-Imidazo[4,5-b]pyridin-3-yl)(methyl)amino)-3-cyanopyrazin-2-yl)phenyl sulfamate], the IC50 is > 60 nM in test [1] and 5.8 nM in test [2].

As to `CN(c1cnc(C#N)c(-c2ccc(OS(N)(=O)=O)cc2)c1)n1cnc2cccnc21` [Example 45, 4-(5-((3H-Imidazo[4,5-b]pyridin-3-yl)(methyl)amino)-2-cyanopyridin-3-yl)phenyl sulfamate], the IC50 is > 60 nM in test [1] and 2.1 nM in test [2].

Turning to `N#Cc1ccc(Nn2cnc3cccnc32)nc1-c1ccc(OS(N)(=O)=O)cc1` [Example 46, 4-(6-(3H-Imidazo[4,5-b]pyridin-3-ylamino)-3-cyanopyridin-2-yl)phenyl sulfamate], the figures for the IC50 in test [1] and in test [2] were 39.5 nM and 21.7 nM, respectively.

As for `N#Cc1cnc(Nn2cnc3cccnc32)nc1-c1ccc(OS(N)(=O)=O)cc1` [Example 47, 4-(2-(3H-Imidazo[4,5-b]pyridin-3-ylamino)-5-cyanopyrimidin-4-yl)phenyl sulfamate], the IC50 in test [1] amounted to 44.1 nM; in test [2], 56.1 nM.

Turning to `CN(c1ncc(C#N)c(-c2ccc(OS(N)(=O)=O)cc2)n1)n1cnc2cccnc21` [Example 48, 4-(2-((3H-Imidazo[4,5-b]pyridin-3-yl)(methyl)amino)-5-cyanopyrimidin-4-yl)phenyl sulfamate], the values for the IC50 in test [1] and in test [2] were > 60 nM and 5.8 nM, respectively.

`CN(c1ccc(C#N)c(-c2ccc(OS(N)(=O)=O)cc2)n1)n1cnc2cccnc21` [Example 49, 4-(6-((3H-Imidazo[4,5-b]pyridin-3-yl)(methyl)amino)-3-cyanopyridin-2-yl)phenyl sulfamate]: the IC50 in test [1] is > 60 nM; in test [2], 3.7 nM.

Consider `N#Cc1ncc(Cn2cnc3cccnc32)cc1-c1ccc(OS(N)(=O)=O)cc1` [Example 50, 4-(5-((3H-imidazo[4,5-b]pyridin-3-yl)methyl)-2-cyanopyridin-3-yl)phenyl sulfamate], for which the results for the IC50 in test [1] and in test [2] were > 60 nM and 16.3 nM, respectively.

On to `N#Cc1ncc(Cn2cnc3cc(F)c(F)cc32)cc1-c1ccc(OS(N)(=O)=O)cc1` [Example 51, 4-(2-Cyano-5-((5,6-difluoro-1H-benzo[d]imidazol-1-yl)methyl)pyridin-3-yl)phenyl sulfamate], for which the IC50 in test [1] was found to be 15.5 nM; in test [2], 2.2 nM.

Consider `N#Cc1cnc(Cn2cnc3cc(F)c(F)cc32)nc1-c1ccc(OS(N)(=O)=O)cc1` [Example 52, 4-(5-Cyano-2-((5,6-difluoro-1H-benzo[d]imidazol-1-yl)methyl)pyrimidin-4-yl)phenyl sulfamate], for which the figures for the IC50 in test [1] and in test [2] were 5.4 nM and 2.9 nM, respectively.
